According to ChEMBL document CHEMBL1201862, “PubChem BioAssay data set” (2004):
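Cultured in 96-well plates, cells were exposed to test compound for 48 hours across five concentrations. GI50 = concentration required for 50% inhibition of growth.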 The source made the active and inactive calls. Cut-off read from the data, not from the text of the source: active = GI50 up to about 1.1 µM and inactive = higher.

Legend:
Experiment in all cases: DTP human tumour cell line panel, 48 h
A498 = test system: A498
RXF 393 = test system: RXF 393
SK-MEL-28 = test system: SK-MEL-28
SF-268 = test system: SF-268
UO-31 = test system: UO-31
K562 = test system: K562
SNB-19 = test system: SNB-19
OVCAR-5 = test system: OVCAR-5
Malme-3M = test system: Malme-3M
T47D = test system: T47D
MDA-MB-231 = test system: MDA-MB-231
NCI-H23 = test system: NCI-H23
SK-MEL-5 = test system: SK-MEL-5
COLO 205 = test system: COLO 205
TK-10 = test system: TK-10
RPMI-8226 = test system: RPMI-8226
LOX IMVI = test system: LOX IMVI
NCI-H522 = test system: NCI-H522
HCT-15 = test system: HCT-15
SNB-75 = test system: SNB-75

SMILES	GI50 (A498)	GI50 (RXF 393)	GI50 (SK-MEL-28)	GI50 (SF-268)	GI50 (UO-31)	GI50 (K562)	GI50 (SNB-19)	GI50 (OVCAR-5)	GI50 (Malme-3M)	GI50 (T47D)	GI50 (MDA-MB-231)	GI50 (NCI-H23)	GI50 (SK-MEL-5)	GI50 (COLO 205)	GI50 (TK-10)	GI50 (RPMI-8226)	GI50 (LOX IMVI)	GI50 (NCI-H522)	GI50 (HCT-15)	GI50 (SNB-75)
O=C(O)c1ccc(OCc2ccccc2)c(Cl)c1	> 100 µM (inactive)	> 100 µM (inactive)	> 100 µM (inactive)	> 100 µM (inactive)	> 100 µM (inactive)	> 100 µM (inactive)	> 100 µM (inactive)	> 100 µM (inactive)	> 100 µM (inactive)	> 100 µM (inactive)	> 100 µM (inactive)	> 100 µM (inactive)	> 100 µM (inactive)	> 100 µM (inactive)	> 100 µM (inactive)	> 100 µM (inactive)	> 100 µM (inactive)	> 100 µM (inactive)	> 100 µM	> 100 µM (inactive)
Cc1cc(NC(=O)NC(=O)c2ccccc2NC(=O)CN(C)C)ccc1Oc1ncc(Br)cn1	0.929 µM (active)	1.98 µM (inactive)	14.9 µM (inactive)	10 µM (inactive)	8.55 µM (inactive)	2 µM (inactive)	9.77 µM (inactive)	15.1 µM (inactive)	6.84 µM (inactive)	> 100 µM (inactive)	1.95 µM (inactive)	4.67 µM (inactive)	1.45 µM (inactive)	2.38 µM (inactive)	21.6 µM (inactive)	10.4 µM (inactive)	9.98 µM (inactive)	1.14 µM (inactive)	3.18 µM	1.89 µM (inactive)
C1CCCN(NC2=NCCO2)CC1	> 100 µM (inactive)	> 100 µM (inactive)	–	–	> 100 µM (inactive)	> 100 µM (inactive)	> 100 µM (inactive)	> 100 µM (inactive)	> 100 µM (inactive)	> 100 µM (inactive)	> 100 µM (inactive)	> 100 µM (inactive)	> 100 µM (inactive)	> 100 µM (inactive)	> 100 µM (inactive)	> 100 µM (inactive)	> 100 µM (inactive)	> 100 µM (inactive)	> 100 µM	> 100 µM (inactive)
CC/C(Cl)=N\OC(=O)Nc1ccccc1OC(F)(F)F	19.6 µM (inactive)	16.7 µM (inactive)	20.1 µM (inactive)	25.2 µM (inactive)	8.18 µM (inactive)	1.95 µM (inactive)	22.5 µM (inactive)	20.1 µM (inactive)	4.52 µM (inactive)	4.32 µM (inactive)	17.1 µM (inactive)	20.9 µM (inactive)	7.38 µM (inactive)	2.1 µM (inactive)	11.6 µM (inactive)	1.73 µM (inactive)	2.34 µM (inactive)	0.665 µM (active)	3.21 µM	19.7 µM (inactive)
CC(=O)N(C(C)=O)c1ncc(-n2nc(-c3ccccc3)cc2-c2ccccc2)c(-c2ccccc2)n1	> 10 µM (inactive)	> 10 µM (inactive)	> 10 µM (inactive)	> 10 µM (inactive)	–	> 10 µM (inactive)	> 10 µM (inactive)	> 10 µM (inactive)	> 10 µM (inactive)	> 10 µM (inactive)	> 10 µM (inactive)	> 10 µM (inactive)	4.12 µM (inactive)	> 10 µM (inactive)	> 10 µM (inactive)	> 10 µM (inactive)	6.73 µM (inactive)	> 10 µM (inactive)	8.91 µM	> 10 µM (inactive)
C#CCn1c(=O)c(C)cn(/C(=C\C(=O)OCC)C(=O)OCC)c1=O	17.2 µM (inactive)	1.95 µM (inactive)	2.03 µM (inactive)	16.1 µM (inactive)	12.7 µM (inactive)	2.63 µM (inactive)	19.7 µM (inactive)	7.06 µM (inactive)	2.1 µM (inactive)	2.65 µM (inactive)	10.1 µM (inactive)	12.6 µM (inactive)	22.3 µM (inactive)	1.17 µM (inactive)	1.77 µM (inactive)	2.8 µM (inactive)	11.1 µM (inactive)	–	1.58 µM	17.6 µM (inactive)
N=c1c2sc3nc4ccccc4n3c2ncn1Cc1ccccc1	> 100 µM (inactive)	63.5 µM (inactive)	> 100 µM (inactive)	> 100 µM (inactive)	> 100 µM (inactive)	–	> 100 µM (inactive)	> 100 µM (inactive)	> 100 µM (inactive)	> 100 µM (inactive)	> 100 µM (inactive)	> 100 µM (inactive)	> 100 µM (inactive)	> 100 µM (inactive)	84.3 µM (inactive)	> 100 µM (inactive)	> 100 µM (inactive)	> 100 µM (inactive)	> 100 µM	> 100 µM (inactive)
COC1=CC(=O)c2c(c(-c3csc(C)n3)cn2C)C1=O	22.5 µM (inactive)	18.3 µM (inactive)	44.5 µM (inactive)	27.2 µM (inactive)	27 µM (inactive)	25.4 µM (inactive)	8.04 µM (inactive)	49.5 µM (inactive)	–	26.5 µM (inactive)	29.4 µM (inactive)	2.56 µM (inactive)	1.72 µM (inactive)	19.8 µM (inactive)	29.9 µM (inactive)	5.24 µM (inactive)	4.81 µM (inactive)	18.5 µM (inactive)	6.34 µM	4.31 µM (inactive)
C#CCN(CC#C)C(=O)C(=O)c1c[nH]c2ccc(OC)cc12	15.1 µM (inactive)	16.3 µM (inactive)	16.1 µM (inactive)	29.5 µM (inactive)	8.11 µM (inactive)	18.6 µM (inactive)	16.1 µM (inactive)	17.4 µM (inactive)	17.2 µM (inactive)	24.2 µM (inactive)	14.9 µM (inactive)	22.4 µM (inactive)	15.8 µM (inactive)	21.6 µM (inactive)	14.5 µM (inactive)	10.6 µM (inactive)	18.7 µM (inactive)	–	15.5 µM	20.2 µM (inactive)
COc1ccc(C(=O)C(Br)C(Br)C(=O)O)cc1 (stereo unspecified)	> 100 µM (inactive)	24.2 µM (inactive)	40.4 µM (inactive)	32.8 µM (inactive)	–	29 µM (inactive)	83.8 µM (inactive)	32.7 µM (inactive)	21.4 µM (inactive)	33.1 µM (inactive)	> 100 µM (inactive)	39.4 µM (inactive)	> 100 µM (inactive)	21.9 µM (inactive)	90.2 µM (inactive)	20.4 µM (inactive)	21 µM (inactive)	16.7 µM (inactive)	37.5 µM	67.3 µM (inactive)
Cc1cc(C)n(-c2nc(-n3nc(C)cc3C)nc(-n3nc(C)cc3C)n2)n1	> 100 µM (inactive)	> 100 µM (inactive)	> 100 µM (inactive)	> 100 µM (inactive)	43.3 µM (inactive)	59.2 µM (inactive)	> 100 µM (inactive)	> 100 µM (inactive)	37.2 µM (inactive)	> 100 µM (inactive)	> 100 µM (inactive)	88.7 µM (inactive)	> 100 µM (inactive)	> 100 µM (inactive)	30.1 µM (inactive)	93.1 µM (inactive)	> 100 µM (inactive)	> 100 µM (inactive)	83.8 µM	–
O=C1CCC(=O)N1n1c(Cc2ccccc2)n[nH]c1=O	> 100 µM (inactive)	> 100 µM (inactive)	> 100 µM (inactive)	> 100 µM (inactive)	> 100 µM (inactive)	> 100 µM (inactive)	> 100 µM (inactive)	> 100 µM (inactive)	> 100 µM (inactive)	> 100 µM (inactive)	> 100 µM (inactive)	–	> 100 µM (inactive)	> 100 µM (inactive)	> 100 µM (inactive)	> 100 µM (inactive)	> 100 µM (inactive)	> 100 µM (inactive)	> 100 µM	5.26 µM (inactive)
C=CCNC(=O)N1CC(C)C(=O)Nc2ccccc21 (stereo unspecified)	> 100 µM (inactive)	> 100 µM (inactive)	> 100 µM (inactive)	> 100 µM (inactive)	> 100 µM (inactive)	> 100 µM (inactive)	> 100 µM (inactive)	> 100 µM (inactive)	> 100 µM (inactive)	> 100 µM (inactive)	> 100 µM (inactive)	> 100 µM (inactive)	> 100 µM (inactive)	> 100 µM (inactive)	> 100 µM (inactive)	> 100 µM (inactive)	> 100 µM (inactive)	> 100 µM (inactive)	> 100 µM	–
Cc1ccc(-c2cc(-c3ccc(Cl)cc3)nc(/N=C3\C(=O)N(CN4CCCCC4)c4ccc(Cl)cc43)n2)cc1	18.8 µM (inactive)	18.3 µM (inactive)	64.1 µM (inactive)	17.9 µM (inactive)	–	19.9 µM (inactive)	11.2 µM (inactive)	38.2 µM (inactive)	84.3 µM (inactive)	29.9 µM (inactive)	36.2 µM (inactive)	19.1 µM (inactive)	19.8 µM (inactive)	25.2 µM (inactive)	21.7 µM (inactive)	–	23.3 µM (inactive)	12.5 µM (inactive)	24.4 µM	42.9 µM (inactive)
CCCCc1c(O)nc(Nc2nc3ccccc3[nH]2)[nH]c1=O	> 100 µM (inactive)	> 100 µM (inactive)	> 100 µM (inactive)	98.9 µM (inactive)	–	> 100 µM (inactive)	> 100 µM (inactive)	> 100 µM (inactive)	22.1 µM (inactive)	> 100 µM (inactive)	> 100 µM (inactive)	> 100 µM (inactive)	> 100 µM (inactive)	> 100 µM (inactive)	> 100 µM (inactive)	> 100 µM (inactive)	> 100 µM (inactive)	57 µM (inactive)	> 100 µM	> 100 µM (inactive)
